# Experimental data as given in US10918647B2, “Selective bromodomain inhibition of fungal Bdf1” (University of Southern California, priority 2016, dated 2021).
# Experiments:
# C. albicans = assay: Growth of C. albicans in vitro (liquid culture growth assay); assay type: cell-based
# Text: FIG. 8. CaBdf1 BDs are insensitive to human BET inhibitors. (a) HTRF inhibition assays performed on BD1 and BD2 from CaBdf1 and human Brd4 to evaluate the effects of four human BET inhibitors. Inhibition curves are shown as closed (BD1) and open (BD2) circles in green (Brd4) and magenta (Bdf1). IC50 values are summarized below each graph. (b) Thermal stability of the indicated BET BDs in the presence and absence of BET inhibitors determined by differential scanning fluorimetry. The thermal shift (ΔTm) for each inhibitor is indicated. Curves obtained in the presence (thick lines) or absence (thin lines) are plotted for CaBDF1 BD1 (solid magenta), CaBDF1 BD2 (dashed magenta) and human Brd4 (green). […] Experiments have been performed in the presence of doxycycline, which represses the pTetO-BDF1 allele.
# FIG. 13. Identification of a CaBdf1-BD1 inhibitor that phenocopies BD1 inactivation. (a) Chemical structure of dibenzothiazepinone compound MS5. (b) HTRF assay showing that MS5 inhibits CaBdf1-BD1 preferentially over CaBdf1-BD2 and with weak selectivity compared to hBrd4-BD1. (c) ITC experiment showing binding of MS5 towards the indicated BD. (d) Effect of MS5 on the growth of C. albicans. The first allele is indicated below the graph, the second is pMET-BDF1 (top) orpTetO-BDF1 (bottom). Strains were grown in the presence of doxycycline or methionine/cysteine, respectively, to repress expression from the second allele. MS5 compromises growth when CaBdf1-BD2 is inactivated by deletion or point-mutation. Statistical test is a two-sided paired t-test performed on ≥5 biological replicates (*p=0.01 to 0.05; **p=0.001 to 0.01; ***p<0.001). (e) Dose-response experiment showing the effect of MS5 on Bdf1 mutant strains.
# We next tested the effect of the identified hit compounds on the growth of C. albicans in vitro. […] We therefore tested compounds that inhibited CaBdf1-BD1 with micromolar IC50 values but which were unselective or only weakly selective for the fungal BD.
# CaBdf1 BD1 [1] = target: T1, CaBdf1 BD1 (Candida albicans, UniProt Q5A4W8); assay: HTRF inhibition assay of BD binding to H4ac4 peptide
# T1 sequence (Q5A4W8 206-315 limits assumed): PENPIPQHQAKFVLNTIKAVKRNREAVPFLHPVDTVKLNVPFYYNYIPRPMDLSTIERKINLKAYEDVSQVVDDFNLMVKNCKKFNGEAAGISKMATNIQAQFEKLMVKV
# Text: (§1) FIG. 7. Homogeneous time-resolved fluorescence (HTRF) assay. a. Assay configuration. A biotinylated tetra-acetylated histone peptide is bound to streptavidin beads which are coupled to a terbium-based donor fluorophore, lumi-Tb cryptate. GST-tagged bromodomain is bound by an anti-GST antibody coupled to the acceptor fluorophore, an organic molecule termed D2. Peptide binding by the bromodomain brings the donor and acceptor within FRET distance. In this situation, excitation of the donor at 337 nm causes energy transfer to the […], whose emitted fluorescence is monitored at 665 nm in a time-resolved manner so as to eliminate transient background fluorescence. b-d.
# (§2) A key consideration in establishing fungal BET BD inhibition as a feasible chemotherapeutic strategy is whether these domains can be targeted by small-molecule inhibitors without antagonizing human BET function. To probe the similarity between the ligand binding pockets of C. albicans and human BET BDs, we asked whether human BET inhibitors could inhibit CaBdf1 BDs.
# Brd4 BD1 = Brd4 BD1 (Homo sapiens, UniProt O60885); assay: Isothermal titration calorimetry (ITC); assay type: binding
# CaBdf1 BD2 [2] = target: T2, CaBdf1 BD2 (Candida albicans, UniProt Q5A4W8); assay: HTRF inhibition assay of BD binding to H4ac4 peptide; conditions: for inhibition of CaBdf1 BD2: HTRF
# T2 sequence (Q5A4W8 383-492 limits assumed): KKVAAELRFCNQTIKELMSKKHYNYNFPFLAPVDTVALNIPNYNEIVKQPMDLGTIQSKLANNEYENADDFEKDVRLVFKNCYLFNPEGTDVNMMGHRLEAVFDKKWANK
# Text: as §1, with “b-d. Binding of biotinylated tetra-acetylated H4 (H4ac4) peptide by the BD1 bromodomains from human Brd4 (b), S. cerevisiae Bdf1 (c) and C. albicans Bdf1 (d) as measured by an increase in HTRF signal with increasing peptide concentration.” for “b-d.”
# as §2
# CaBdf1 BD2 [3] = target: T2, CaBdf1 BD2; assay: Isothermal titration calorimetry (ITC); assay type: binding, C. albicans
# CaBdf1 BD1 [4] = target: T1, CaBdf1 BD1; assay: Isothermal titration calorimetry (ITC); assay type: binding, C. albicans
compound,measurement,setting,value
"COc1cc2c(cc1-c1c(C)noc1C)ncc1[nH]c(=O)n([C@H](C)c3ccccn3)c12 [IBET-151, reference compound]",effect on C. albicans growth,"C. albicans; even when Bdf1 bromodomains are deleted, in the presence of doxycycline (represses pTetO-BDF1 allele)",do not affect
same,effect on the growth of C. albicans in vitro,C. albicans,none of the BET inhibitors had any significant effect
same,reduction in sensitivity relative to Brd4,CaBdf1 BD1 [1]; CaBdf1 BD1 vs corresponding Brd4 BD,60 fold
same,IC50,"CaBdf1 BD1 [1]; HTRF, strongest inhibition",~300 nM
O=C1c2ccccc2Sc2cc(-c3noc(-c4cnccn4)n3)ccc2N1C1CC1 [MS4],binding (ITC),Brd4 BD1,no significant binding was detected
same,effect on the growth of C. albicans in vitro,C. albicans,little effect
same,inhibition of CaBdf1 BD2,CaBdf1 BD2 [2],only modest inhibition
"Cc1ccc(Nc2c(-c3ccc(O)cc3)nc3c(C)cccn23)cc1 [MS51, 4-(8-Methyl-3-(p-tolylamino)imidazo[1,2-a]pyridin-2-yl)phenol]",Kd,"CaBdf1 BD2 [3]; HTRF and ITC assays, read-out: affinity",1000 to 2000 nM
same,selectivity relative to BD1 of either CaBdf1 or human Brd4,CaBdf1 BD2 [2],high selectivity
"CCOC(=O)Nc1cc(-c2ccc(C)c(NS(C)(=O)=O)c2)nn2c(C)nnc12 [bromosporine, reference compound]",IC50,CaBdf1 BD2 [2],~300 nM
"Cc1sc2c(c1C)C(c1ccc(Cl)cc1)=N[C@@H](CC(=O)OC(C)(C)C)c1nnc(C)n1-2 [JQ1, reference compound]",binding (ITC),CaBdf1 BD2 [3]; ITC,no binding was detected
same,binding (ITC),CaBdf1 BD1 [4]; ITC,no binding was detected
"CN1C(=O)c2ccccc2Sc2cc(NC(=O)C3CCCO3)ccc21 (centres unmarked) [MS5, N-(10-methyl-11-oxo-10,11-dihydrodibenzo[b,f][1,4]thiazepin-7-yl)tetrahydrofuran-2-carboxamide]",Kd / affinity,CaBdf1 BD1 [4]; ITC (MS5: HTRF and ITC assays),low micromolar
same,IC50,"C. albicans; Candida albicans, read-out: IC50 (growth dose-response curve)",40000 nM
same,effect on growth compared to vehicle (DMSO),"C. albicans; liquid culture, strains expressing WT Bdf1 or mutant Bdf1 inactivated in the first BD",little effect
same,effect on growth,C. albicans; strains inactivated in BD2,significantly compromised
same,inhibition of CaBdf1 BD2,CaBdf1 BD2 [2],only a weak inhibitory effect
